From PMC11445189 (Frontiers in Toxicology, 2024)
Marks after values point to notes of the source that are not given here.

Assays:
zebrafish embryos [1] = assay: Single toxicity test for zebrafish embryos (ECx); type: in vivo; conditions: for EC50: Danio rerio, 144 h, read-out: EC50 (95% CI); for EC50 / EC5 (95% CI) / EC15 (95% CI) / EC25 (95% CI): embryonic toxicity (lethality + abnormality), embryo-larva stage, 6 days exposure, probit; for toxicity to zebrafish embryos, individually: at high concentrations, 500 and 1,000 μg/mL
Description: (§1) Zebrafish embryos were obtained from adult zebrafish continuously sub-cultured in Korea Institute Toxicology Laboratory, Republic of Korea and were maintained at 26°C ± 1°C in a climate chamber (16 h daylight: 8 h darkness) until use for toxicity tests ([Park et al., 2022]). […] At 6 days after exposure, embryonic toxicity (%) was scored as follows: [embryonic toxicity (%) = lethality (dead embryo + dead larva) + abnormality (unhatched eggs + abnormal larva)/initial embryos × 100]. Developmental abnormality of zebrafish was investigated based on apical phenotypic observation, such as coagulated embryos, lack of somite formation, non-detachment of the tail, and lack of heartbeat for 6 days after exposure ([OECD, 2013]). Embryonic toxicity (%) was used for estimating the effective concentration values (ECx) for each chemical and 95% confidence limits, by concentration-response curves (CETIS program version 1.8.7.15, Tidepool Scientific Software, United States) ([Park et al., 2022]).

sheepshead minnow = conditions: acute toxicity, ref Gibbons et al., 2015; cited from earlier work
cyp1b1 = assay: qRT-PCR transcriptional alteration in zebrafish embryos; type: in vivo; conditions: single chemical 10 ng/mL, 6 days, normalized to β-actin
Description: (§2) To verify the developmental effects in zebrafish embryos caused by exposure to realistic mixtures, mixture toxicity tests with zebrafish embryos were performed at a range of environmentally relevant concentrations, and three exposure concentrations at a 1:1 mixing ratio (i.e., 1, 10, and 100 ng/mL of each chemical). […] Realistic mixture toxicity tests using zebrafish embryos were performed under the same conditions as the single-toxicity tests.
(§3) To examine the transcriptional alteration of target genes linked to zebrafish embryonic development, The total RNA from 20 zebrafish embryos was extracted using a RNeasy Mini kit (Qiagen, Hilden, Germany), following the manufacturer’s instructions. The total RNA concentration was measured spectrophoto-metrically at 260/280 nm using a Gen5™ spectrophotometer (BioTek®, Winooski, VT, United States). […]
(§4) The primer sequences for target genes were designed to use for quantitative real-time polymerase chain reaction (qRT–PCR): namely aryl hydrocarbon receptor 2 (ahr2), cytochrome P450 monooxygenases (i.e., cyp1a1 and cyp1b1), nuclear factor erythroid 2-related factors (i.e., nrf1a and nrf2a), tumor suppressor gene (p53), thyroid stimulating hormone beta subunit (tsh-β), and thyroid hormone receptors (i.e., thraa and thrb) (Supplementary Table S1) ([Fan et al., 2018]; [Liu et al., 2011]; [Ren et al., 2020]; [Williams et al., 2013]). […]

cyp1a1 = assay: as above; type: in vivo; conditions: single chemical 10 ng/mL, 6 days, normalized to β-actin
Description: as §2, §3, §4

zebrafish embryos [2] = assay: Realistic mixture toxicity test, embryonic toxicity; type: in vivo; conditions: single chemical 10 ng/mL, 6 days after exposure
Description: as §1
To verify the developmental effects in zebrafish embryos caused by exposure to realistic mixtures, mixture toxicity tests with zebrafish embryos were performed at a range of environmentally relevant concentrations, and three exposure concentrations at a 1:1 mixing ratio (i.e., 1, 10, and 100 ng/mL of each chemical). […]

[3] = ref Mason et al., 2013, cited from earlier work

| SMILES | EC50 (zebrafish embryos [1]) [µg/mL] | toxicity to zebrafish embryos, individually (zebrafish embryos [1]) | EC5 (95% CI) (zebrafish embryos [1]) | EC15 (95% CI) (zebrafish embryos [1]) | EC25 (95% CI) (zebrafish embryos [1]) | 50% lethal concentration (LC50) (sheepshead minnow) [µg/mL] | Relative fold change of gene expression, cyp1b1 (cyp1b1) | Relative fold change of gene expression, cyp1a1 (cyp1a1) | Embryonic toxicity (%) (zebrafish embryos [2]) | half-life in sediment ([3]; sediment) [days] | half-life in soil ([3]; soil) |
| --- | --- | --- | --- | --- | --- | --- | --- | --- | --- | --- | --- |
| CN/C(=N\[N+](=O)[O-])NCc1cnc(Cl)s1 [CLO, Clothianidin] | 411 | toxic | 65.28 (N.C.–104.61) µg/mL | 255.72 (224.61–289.12) µg/mL | 292.89 (247.77–332.07) µg/mL | 161 | 1.36±0.34^a | 0.38±0.06^a | 12.5 ± 3.4 | 56 | up to 1,386 days |
| O=[N+]([O-])NC1=NCCN1Cc1ccc(Cl)nc1 [IMD, imidacloprid] | 268 | toxic | 60.80 (N.C.–108.36) µg/mL | 145.69 (113.89–158.99) µg/mL | 175.04 (146.25–196.54) µg/mL | 93.6 | – | – | 12.5 ± 2.8 | – | – |
